Series [1] is described as follows: in vitro.
Method: (§1) RAW264.7 cells were cultured in Dulbecco’s modified essential medium (DMEM, Gibco). The cells were incubated at 37 °C in DMEM with 10% fetal bovine serum (FBS, Gibco), penicillin (100 U/mL, Gibco), and streptomycin sulfate (100 μg/mL, Gibco) under a humidified atmosphere containing 5% CO2. Briefly, 2 × 10^4 cells/well treated for 24 h with vehicle or compounds were examined for cell viability based on the MTT (3-(4,5-dimethylthiazol-2-yl)-2,5-diphenyltetrazolium bromide assay) method.[60] Survival of macrophage cells after treatment with compounds was measured at a wavelength of 570 nm.
(§2) RAW264.7 cells (2 × 10^4 cells/well) were stimulated with or without 1 μg/mL lipopolysaccharide (LPS, Sigma) for 24 h in the presence or absence of the test compounds at different concentrations. Afterward, 100 μL of the cell culture supernatant was mixed with 100 μL of Griess reagent.[61] The remaining cells from the Griess assay were then utilized to determine their viability by using the MTT colorimetric assay described above.
Series [2] has as its system NO production in LPS-stimulated RAW264.7 cells. Nature of the series: Inhibition of nitric oxide (NO) production in LPS-stimulated RAW264.7 cells (Griess reagent). The series is classed as cell-based. The conditions noted are these: Mus musculus, 1 μg/mL LPS, read-out: IC50 value, NO production inhibitory effect. (Nitrite, measured by Griess reagent, commonly stands in for NO production.)
Method: as §1, §2

Series [3] can be described thus: in vitro. The conditions noted are these: human.
Method: (§3) Human hepatocellular carcinoma HepG2 cells were cultured in DMEM (Gibco) supplemented with 10% FBS (Gibco) and 1% antibiotic–antimycotic (Gibco, 15240062). Once cells reached approximately 80% confluence, they were washed with PBS and detached using trypsin-EDTA (Gibco, 25200072) at 37 °C for 5 min. Cells were then seeded into 96-well plates at a density of 3 × 10^4 cells per well (100 μL/well) and incubated for 24 h at 37 °C in a humidified atmosphere with 5% CO2.
(§4) After the initial incubation, the medium was replaced with 100 μL of fresh medium containing the test compounds, and the cells were incubated for an additional 48 h. Cell viability was determined using the MTT assay, following standard protocols with untreated cells serving as the control. The percentage of cell viability was calculated using the following formula: % viability = [(number of viable cells)/(total cells)] × 100. The concentration of the test compounds was set at 80 μM for the screening.
Series [4] in a line: RAW264.7 cell viability (MTT) alongside the NO assay. Particulars: RAW264.7 cells.
Method: as §1, §2
The nature of series [5]: HepG2 cytotoxicity test (MTT, 48 h). Particulars: human, HepG2 cells.
Method: as §3, §4
A short description of series [6]: Hepatoprotective effect in acetaminophen-induced hepatotoxicity in HepG2 cell model (MTT). The format is cell-based. The conditions noted are these: human, HepG2 cells, HepG2, 6 mM APAP, control without APAP 100%, read-out: Cell viability, treated only with acetaminophen (APAP). Here is the method: Compounds that maintained cell viability above 80% were subsequently tested for their hepatoprotective properties using an acetaminophen-induced hepatotoxicity model in HepG2 cells. […] Afterward, the cells were treated with the test compounds. Eight hours later, hepatotoxicity was induced by adding acetaminophen (6 mM, Sigma-Aldrich A7085) to the wells. Cell viability was measured using the MTT assay 36 h after acetaminophen exposure, and the results were used to assess the hepatoprotective effects of the compounds.

Broadly, the viability is a read-out of living cells in per cent, often relative to untreated cells. What is called IC50 is the concentration that inhibits the measured activity by half.

Molecules are shown by their SMILES. Read-outs that look alike come from different tables or passages of the source.

With `C=C[C@H]1[C@H](O[C@@H]2O[C@H](CO)[C@@H](O)[C@H](O)[C@H]2O)OC=C2C(=O)OCC[C@H]21` [Compound 13, sweroside], the viability at 48 h, 80 µM in the series “in vitro [1]” was 94.7 ± 4.2%; in the series “in vitro [3]”, greater than 80%. The IC50 in series [2] (24 h) worked out at 36 ± 1.6 µM.
As for `C=C[C@H]1[C@H](O[C@@H]2O[C@H](CO)[C@@H](O)[C@H](O)[C@H]2O)OC=C(C(=O)O[C@H]2C[C@@H]3C(C(=O)OC)=CO[C@@H](O[C@@H]4O[C@H](CO)[C@@H](O)[C@H](O)[C@H]4O)[C@@H]3[C@@H]2C)[C@H]1/C=C(\C=O)[C@@H]1C(C(=O)O[C@@H]2C[C@@H]3C(C(=O)OC)=CO[C@@H](O[C@@H]4O[C@H](CO)[C@@H](O)[C@H](O)[C@H]4O)[C@@H]3[C@@H]2C)=CO[C@@H](O[C@@H]2O[C@H](CO)[C@@H](O)[C@H](O)[C@H]2O)[C@@H]1C=C` [Compound 15, dipsanoside A], the values for the viability at 48 h, 80 µM in series [4] and in series [5] were 99.5 ± 3.6% and greater than 80%, respectively. In addition, in series [2] (RAW264.7, 24 h), the IC50 stood at 6.13 ± 0.5 µM.
As to `C=C[C@H]1[C@H](O[C@@H]2O[C@H](CO)[C@@H](O)[C@H](O)[C@H]2O)OC=C(C(=O)O[C@H]2C[C@@H]3C(C(=O)OC)=CO[C@@H](O[C@@H]4O[C@H](CO)[C@@H](O)[C@H](O)[C@H]4O)[C@@H]3[C@H]2C)[C@H]1C[C@@H]1N[C@H](C(=O)O)Cc2c1[nH]c1ccccc21` [Compound 16, dipsaperine], the viability at 48 h, 80 µM is 95.2 ± 2.1% in series [4] and greater than 80% in series [5]. The IC50 in series [2] (RAW264.7, 24 h) amounted to 17 ± 1.1 µM.
On the same counts, the results for `C=C[C@H]1[C@H](O[C@@H]2O[C@H](CO)[C@@H](O)[C@H](O)[C@H]2O)OC=C(C(=O)O[C@H]2C[C@@H]3C(C(=O)OC)=CO[C@@H](O[C@@H]4O[C@H](CO)[C@@H](O)[C@H](O)[C@H]4O)[C@@H]3[C@@H]2C)[C@H]1/C=C(\C=O)[C@@H]1C(C(=O)O[C@H]2C[C@@H]3C(C(=O)OC)=CO[C@@H](O[C@@H]4O[C@H](CO)[C@@H](O)[C@H](O)[C@H]4O)[C@@H]3[C@H]2C)=CO[C@@H](O[C@@H]2O[C@H](CO)[C@@H](O)[C@H](O)[C@H]2O)[C@@H]1C=C` [Compound 17, dipsanoside B] are 94.2 ± 4.6%, greater than 80% and 14.4 ± 1.5 µM.
The matching figures for `COC(=O)C1=CO[C@@H](O[C@@H]2O[C@H](CO)[C@@H](O)[C@H](O)[C@H]2O)[C@@H]2[C@@H](C)[C@@H](O)C[C@H]12` [Compound 18, loganin]: 98.1 ± 4%, greater than 80% and 51.1 ± 1.8 µM.
As for `CC(=O)Nc1ccc(O)cc1` [acetaminophen (APAP), acetaminophen], the viability at 36 h, 6 mM in series [6] was determined as 68.1%.

For the origin of these results see paper PMC11877508, “Anti-inflammatory and Hepatoprotective Iridoid Glycosides from the Roots of Gomphandra mollis” (Journal of Natural Products, 2025).
